The text below walks through data of patent US20030162662A1, “2-Phenyl-2h-pyridazine-3-ones” (priority 2000, published 2003).

By melting point is commonly meant the temperature of the solid-liquid transition.

One series relates to BIDPI (common blackjack). Put plainly: Greenhouse herbicidal action, postemergence treatment, BIDPI. Format: in vivo. From the text:
(§1) The herbicidal action of the 2-phenylpyridazin-3-one compounds of the formula I could be shown by means of greenhouse experiments: […]
(§2) The cultivation containers used were plastic pots containing loamy sand with approximately 3.0% of humus as a substrate. The seeds of the test plants were sown separately according to species.
(§3) For the purpose of postemergence treatment, the test plants were first raised up to a growth height of 3 to 15 cm, depending on growth form, and then treated with the active compounds suspended or emulsified in water. For this, the test plants were either sown directly and raised in the same containers or they were first raised separately as seedlings and transplanted into the experimental containers a few days before the treatment. The application rate for the postemergence treatment was 31.2 or 15.6 g of a.S./ha.
(§4) The plants were kept species-specifically at temperatures from 10-25° C. or 20-35° C. The experimental period extended over 2 to 4 weeks. During this time, the plants were tended, and their reaction to the individual treatments was assessed.
(§5) Assessment was carried out on a scale from 0 to 100. 100 here means no emergence of the plants or complete destruction of at least the above-ground parts and 0 means no damage or normal course of growth.
(§6) The plants used in the greenhouse experiments were made up of the following species: […]

In the next series the test system is SETFA (Faber's foxtail). Put plainly: Greenhouse herbicidal action, postemergence treatment, SETFA. Format: in vivo.
Source text: as §1, §2, §3, §4, §5, §6

Take `CCOC(=O)C=Cc1cc(-n2ncc(C(F)(F)F)c(C)c2=O)c(F)cc1Cl` [Example I-658 of WO 97/07104, reference compound]: the “herbicidal action against BIDPI (scale 0 to 100; 100 = complete destruction, 0 = no damage)” value in the series on BIDPI (common blackjack) (application rate 15.6 g/ha) and in the series with BIDPI (common blackjack) (application rate 31.2 g/ha) was 30% each time. Moreover, the “herbicidal action against SETFA (scale 0 to 100; 100 = complete destruction, 0 = no damage)” value in the series with SETFA (Faber's foxtail) (application rate 15.6 g/ha) amounted to 80%.
Turning to `COC(=O)/C(Cl)=C/c1cc(-n2ncc(C(F)(F)F)c(C)c2=O)c(F)cc1Cl` [Ib.2], the melting point is 121 to 123 °C.
On the same count and under the same terms, the value for `Cc1c(C(F)(F)F)cnn(-c2cc(/C=C(\Cl)C(N)=O)c(Cl)cc2F)c1=O` [Ib.30] was 128 to 129 °C.
For `CCOC(=O)C(Cl)=Cc1cc(-n2ncc(C(F)(F)F)c(C)c2=O)c(F)cc1Cl` [Ia.3, 2-[4-Chloro-2-fluoro-5-(2-ethoxycarbonyl-2-chloroethen-1-yl)-phenyl]-4-methyl-5-trifluoromethyl-2H-pyridazin-3-one], the results for the “herbicidal action against BIDPI (scale 0 to 100; 100 = complete destruction, 0 = no damage)” value with BIDPI (common blackjack) (application rate 15.6 g/ha) and in the series on BIDPI (common blackjack) (application rate 31.2 g/ha) were 80% and 100%, respectively. For the same compound, the “herbicidal action against SETFA (scale 0 to 100; 100 = complete destruction, 0 = no damage)” value in the series on SETFA (Faber's foxtail) (application rate 15.6 g/ha) and in the series with SETFA (Faber's foxtail) (application rate 31.2 g/ha) was 100% each time.
